Laboratory results taken from patent US10124065B2, “Lipids and lipid compositions for the delivery of active agents” (Novartis AG, priority 2013, dated 2018).

Key:
[1] = Particle size of lipid nanoparticle (dynamic light scattering, Malvern Zetasizer); assay type: physicochemical
In short: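 Sizes are average diameters of fully formed nanoparticles measured by dynamic light scattering. Samples were diluted in PBS to a count rate of about 200–400 kcts. Values are intensity-weighted Z-average sizes.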

[2] = Measurement of mRNA encapsulation (Quant-iT Ribogreen); assay type: physicochemical; settings: leptin mRNA in lipid nanoparticles (cationic lipid, DSPC, cholesterol, stealth lipid)
Method: All equipment and disposable supplies were certified free of RNase activity by the manufacturer or rendered RNase free by use of the RNaseZap reagent (LifeTechnologies). mRNA was encapsulated at a cationic lipid amine to mRNA phosphate (N:P) molar ratio of 4:1. Lipids (cationic lipid, DSPC, cholesterol and lipidated PEG or stealth lipid) were dissolved in ethanol. The molar ratios were […], respectively. The mixture was sonicated briefly, then gently agitated for 5 minutes and then maintained at 37° C. until use. mRNA was exchanged into citrate buffer pH 5.8-6.0 by use of Amicon Ultra-15 centrifugal concentrators, and the final concentration was adjusted to 0.5 mg/ml and held at 37° C. until use. An equal volume of lipids in ethanol, mRNA in citrate buffer, and citrate buffer alone were drawn into disposable syringes. Tubing leading from syringes containing lipids and mRNA are attached to the T junction, and tubing leading from the syringe containing citrate buffer alone was paired with the tubing exiting the T-junction over a collection vessel containing a stir bar on an active stir plate. Syringes were placed in a syringe pump set to expel contents at a flow rate of 1 ml per minute.
The pump was activated, and the collected mRNA in lipid nanoparticles was transferred to SnakeSkin dialysis tubing (10,000 MWCO, Thermo Scientific). Material was dialyzed against RNAse- and pyrogen-free 1× phosphate buffered saline overnight at 4° C.
Percent encapsulation of mRNA in lipid nanoparticles was determined using the Quant-iT Ribogreen RNA Assay kit (Life Technologies). The LNP-mRNA suspension was assayed in buffer (mRNA outside the particle), and buffer plus Triton X-100 detergent (total mRNA). The difference calculated was the mRNA inside the particle. A 1000 ng/mL stock from the RNA provided in the kit was prepared and used to generate a standard curve (0 ng/ml, 15.63-1000 ng/ml) in TE and TE+0.75% Triton X-100. LNP-mRNA samples in TE buffer and TE buffer+0.75% Triton X-100 were prepared with appropriate dilution so that reading was in the range of standard curve (400-2,000 fold). In a 384-well plate (Costar non-treated #3573) 0.04 ml of standard (in duplicate) or sample (in triplicate) were added per well. Ribogreen reagent was diluted 240-fold in TE buffer and added 0.06 ml per well. The contents of wells were mixed and fluorescence was measured (excitation=480 nm, emission=520 nm). Background values (no RNA) were subtracted from standard and test sample values and the concentrations of RNA were determined in the samples using the standard curves. The percent encapsulation of the sample was determined by dividing the difference in concentrations between sample+triton and sample in buffer alone by the sample+triton concentration.

[3] = Polydispersity index (PDI) of lipid nanoparticle (dynamic light scattering); assay type: physicochemical
Method: Unless indicated otherwise, all PDIs referred to herein are the PDI of the fully formed nanoparticle, as measured by dynamic light scattering on a Malvern Zetasizer. The nanoparticle sample was diluted in phosphate buffered saline (PBS) so that the count rate was approximately 200-400 kcts. The data is presented in Tables 4 and 5 as a weighted average of the intensity measure.

[4] = test system: human leptin; experiment: Mouse intravenous tail vein injection of modified synthetic leptin mRNA, human leptin ELISA; assay type: in vivo, C57BL/6 mouse; settings: human leptin in mouse plasma, 10 μg leptin mRNA, 24 h
Method: Before the tail vein injection, mouse body weights were recorded and diet weighted, with mice grouped according to their body weights. Mice were prepared by warming them under a heating lamp for ˜2 minutes, with the mice about 12 inches from heat lamp.
For the tail vein injection procedure, the mice were placed in a restrainer and their tails cleaned with 70% alcohol. A 27 gauge needle (Becton Dickinson, Catalogue #305109) connected with a 1 ml syringe (Becton Dickinson, Catalogue #309659) was inserted into the tail vein, with bevel facing up, and the syringe plunger was pulled backwards to ensure blood is drawn into the syringe. The desired volume of modified synthetic leptin mRNA was injected by hand with moderate pressure and speed. The needle was then withdrawn and bleeding stopped by adding pressure to injection site with gauze.
Single housed, 8-9 week old, male C57BL/6 mice were used for the in vivo study. FPLC purified modified synthetic leptin mRNA (SEQ ID NO: 5) in which the uridines were substituted with pseudouridine was packaged in a cationic lipid (N:P molar ratio=8:1) and then were diluted in injectable saline at a dose of 10 μg per average group body weight.
On day 0, animals were weighed and sorted according to average body weight. Mice were dosed, and food intake (FI) was recorded, on each of days 1-7 and days 9, 11, and 16.
Human leptin in mouse plasma was measured by ELISA. Antibodies purchased from the R&D Systems duoset (Cat# DY398E, part#840279 for capture antibody and part#840280 for detection antibody) were reconstituted using PBS and titered, again using PBS. The capture antibody was coated at 4 ug/ml in 30 ul/well on a white Nunc® Maxisorp 384 well plate (Cat#460372). After an overnight incubation at room temperature the capture antibody was aspirated and the plate blocked for 2 hours at room temperature with 90 ul/well of KPL milk blocker (Cat#50-82-00). Once the incubation was completed the plate was aspirated and recombinant standards and samples were added to the plate at 30 ul/well for 2 hours at 37° C. while shaking at 600 rpm. Sample/standard dilutions were made using casein sample diluent. Washing/aspiration 3 times with 100 ul/well followed, using Teknova plate wash solution (Cat# P1192). Next, detection antibody was diluted using casein detection antibody diluent to 12.5 ng/ml and added at 30 ul/well for 2 hours room temperature. After this incubation, the plate was washed again and a solution of poly-streptavidin-HRP (Cat#21140) at a 1:1250 dilution in HRP dilution buffer was added to each well (30 ul/well) and incubated for 30 minutes room temperature. A final wash/aspiration removed the HRP solution and a chemiluminescent substrate was added at 30 ul/well (Cat#1859678 & 1859679). The plate was quickly read using a SpectramaxM5 plate reader with a 50 ms integration time. The dynamic range of the ELISA is from 100-2,000 pg/ml (6.25-125 pM) of human leptin.

[5] = FVII siRNA LNP, Chol/DSPC/S010, molar ratio 45/44/9/2, Z-average
[6] = leptin mRNA lipid nanoparticles
[7] = FVII siRNA LNP, Chol/DSPC/S010, molar ratio 45/44/9/2

| SMILES | Size (nm) [1, 5] [nm] | Size (nm) [1, 6] [nm] | % encapsulation [2] [%] | PDI [3, 7] | PDI [3, 6] | Leptin expression IV-C57BI/6, 24 h [4] [ng/mL] |
| --- | --- | --- | --- | --- | --- | --- |
| CCCCCCCCCCCCOC(=O)CCCCCOc1cc(CN(C)C)cc(OCCCCCC(=O)OCCCCCCCCCCCC)c1 [Example 90, didodecyl 6,6′-((5-((dimethylamino)methyl)-1,3-phenylene)bis(oxy))dihexanoate] | 87.54 | 164.7 | 80.9 | 0.073 | 0.090 | 0.74 |
| CCCCCCCC(=O)OCCCCCCCCCCOC(=O)CCC(=O)OCc1cc(COC(=O)CCC(=O)OCCCCCCCCCCOC(=O)CCCCCCC)cc(CN(C)C)c1 [Example 78, O,O′-((5-((dimethylamino)methyl)-1,3-phenylene)bis(methylene))bis(10-(octanoyloxy)decyl)disuccinate] | 178.2 | 164.0 | 71.1 | 0.043 | 0.150 | 0.96 |
